For the experiment, the target named is human Factor XIa (Homo sapiens (Human), UniProt P03951). Briefly: Factor XIa Assay. The class given is biochemical. The following applies: purified human Factor XIa 40 pM, Z-Gly-Pro-Arg-AFC 100 μM, pH 7.4; read-out: FXIa Ki. The method, then: The effectiveness of a compound of the present invention as an inhibitor of Coagulation Factor XIa can be determined using a relevant purified serine protease, and an appropriate synthetic substrate. The rate of hydrolysis of the chromogenic or fluorogenic substrate by the relevant serine protease was measured both in the absence and presence of compounds of the present invention. Assays were conducted at room temperature or at 37° C. […] A decrease in the rate of fluorescence change in the presence of inhibitor is indicative of enzyme inhibition. Such methods are known to one skilled in the art. The results of this assay are expressed as the inhibitory constant, Ki.
human Factor XIa, sequence (P03951 388-625): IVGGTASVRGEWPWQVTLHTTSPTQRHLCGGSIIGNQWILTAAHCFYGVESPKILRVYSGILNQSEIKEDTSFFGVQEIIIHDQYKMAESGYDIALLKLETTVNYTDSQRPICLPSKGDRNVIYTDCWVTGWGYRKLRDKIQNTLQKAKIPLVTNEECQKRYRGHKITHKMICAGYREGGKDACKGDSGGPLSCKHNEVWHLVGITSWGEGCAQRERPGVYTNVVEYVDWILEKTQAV
human Factor XIa, sequence (P03951 19-387 partner): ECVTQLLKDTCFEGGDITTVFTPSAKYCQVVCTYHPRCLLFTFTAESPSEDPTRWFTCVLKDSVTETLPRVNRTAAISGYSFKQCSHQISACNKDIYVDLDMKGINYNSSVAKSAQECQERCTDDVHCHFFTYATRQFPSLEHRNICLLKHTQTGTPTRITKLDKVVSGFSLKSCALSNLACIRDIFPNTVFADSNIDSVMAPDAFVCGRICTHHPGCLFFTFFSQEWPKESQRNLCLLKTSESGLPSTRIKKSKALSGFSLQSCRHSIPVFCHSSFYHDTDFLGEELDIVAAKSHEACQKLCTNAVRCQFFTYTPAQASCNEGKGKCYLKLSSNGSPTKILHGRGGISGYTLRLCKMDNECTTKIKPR
Factor XIa determinations were made in 50 mM HEPES buffer at pH 7.4 containing 150 mM NaCl, 5 mM CaCl2, and 0.1% PEG 8000 (polyethylene glycol; JT Baker or Fisher Scientific). Determinations were made using purified human Factor XIa at a final concentration of 40 pM (Sekisui Diagnostics) and he synthetic substrate, Z-Gly-Pro-Arg-AFC, TFA salt (Sigma #C0980) at a concentration of 100 μM.
Times required to achieve equilibration between enzyme and inhibitor were determined in control experiments. Initial velocities of product formation in the absence (Vo) or presence of inhibitor (Vi) were measured. Assuming competitive inhibition, and that unity is negligible compared Km/[S], [I]/e, and [I]/e (where [S], [I], and e respectively represent the total concentrations, of substrate, inhibitor and enzyme), the equilibrium constant (Ki) for dissociation of the inhibitor from the enzyme can be obtained from the dependence of Vo/Vi on [I] shown in the following equation.

A word on the Ki: it is the dissociation constant of the complex between target and ligand, obtained from inhibition or displacement.

SMILES strings stand for the structures.

As for `COC(=O)Nc1ccc(C(=O)N[C@@H](Cc2ccccc2)C(=O)N2CC[C@]3(C2)OC(=O)Nc2ccc(C)cc23)cc1` [Example 14a, methyl (4-(((S)-1-((S)-6-methyl-2-oxo-1,2-dihydrospiro[benzo[d][1,3]oxazine-4,3′-pyrrolidin]-1′-yl)-1-oxo-3-phenylpropan-2-yl)carbamoyl)phenyl)carbamate], the Ki amounted to 5000 nM.

Take `COC(=O)Nc1ccc(C(=O)N[C@@H](Cc2ccccc2)C(=O)N2CCC[C@@]3(C2)OC(=O)Nc2ccc(C4CC4)c(F)c23)cc1` [Example 17, methyl (4-(((S)-1-((R)-6-cyclopropyl-5-fluoro-2-oxo-1,2-dihydrospiro[benzo[d][1,3]oxazine-4,3′-piperidin]-1′-yl)-1-oxo-3-phenylpropan-2-yl)carbamoyl)phenyl)carbamate]: the Ki was found to be 37.4 nM.

Take `COC(=O)Nc1ccc(C(=O)N[C@@H](Cc2ccccc2)C(=O)N2CCC3(CC(=O)Nc4ccc(Cl)cc43)C2)cc1` (stereo partly drawn) [Example 18, methyl (4-(((2S)-1-(6′-chloro-2′-oxo-2′,3′-dihydro-1′H-spiro[pyrrolidine-3,4′-quinolin]-1-yl)-1-oxo-3-phenylpropan-2-yl)carbamoyl)phenyl)carbamate]: the Ki came to 5000 nM.

Consider `COC(=O)Nc1ccc(C(=O)N[C@@H](CC2CC2)C(=O)N2CC[C@]3(C2)OC(=O)Nc2ccc(Cl)cc23)cc1` [Example 21a, methyl (4-(((S)-1-((S)-6-chloro-2-oxo-1,2-dihydrospiro[benzo[d][1,3]oxazine-4,3′-pyrrolidin]-1′-yl)-3-cyclopropyl-1-oxopropan-2-yl)carbamoyl)phenyl)carbamate], for which the Ki was 726 nM.

Turning to `COC(=O)Nc1ccc(C(=O)N[C@@H](CC2CC2)C(=O)N2CC[C@@]3(C2)OC(=O)Nc2ccc(Cl)cc23)cc1` [Example 21b, methyl (4-(((S)-1-((R)-6-chloro-2-oxo-1,2-dihydrospiro[benzo[d][1,3]oxazine-4,3′-pyrrolidin]-1′-yl)-3-cyclopropyl-1-oxopropan-2-yl)carbamoyl)phenyl)carbamate], the Ki was determined as 31.2 nM.

Regarding `COC(=O)Nc1ccc(C(=O)N[C@@](C)(Cc2ccccc2)C(=O)N2CCC3(C2)OC(=O)Nc2ccc(Cl)cc23)cc1` (stereo partly drawn) [Example 24, methyl (4-(((2S)-1-(6-chloro-2-oxo-1,2-dihydrospiro[benzo[d][1,3]oxazine-4,3′-pyrrolidin]-1′-yl)-2-methyl-1-oxo-3-phenylpropan-2-yl)carbamoyl)phenyl)carbamate], the Ki is at least 5000 nM.

Consider `COC(=O)Nc1ccc(C(=O)N[C@@]2(C(=O)N3CCC4(C3)OC(=O)Nc3ccc(Cl)cc34)C[C@@H]2c2ccccc2)cc1` (stereo partly drawn) [Example 25, methyl (4-(((1S,2R)-1-(6-chloro-2-oxo-1,2-dihydrospiro[benzo[d][1,3]oxazine-4,3′-pyrrolidin]-1′-ylcarbonyl)-2-phenylcyclopropyl)carbamoyl)phenyl)carbamate], for which the inhibitory constant (Ki) was at least 5000 nM.

For the molecule `COC(=O)Nc1ccc(C(=O)N[C@H](C(=O)N2CCC3(C2)OC(=O)Nc2ccc(Cl)cc23)c2ccccc2)cc1` (stereo partly drawn) [Example 29, methyl (4-(((1S)-2-(6-chloro-2-oxo-1,2-dihydrospiro[benzo[d][1,3]oxazine-4,3′-pyrrolidin]-1′-yl)-2-oxo-1-phenylethyl)carbamoyl)phenyl)carbamate], the inhibition constant Ki is at least 5000 nM.

Regarding `COC(=O)Nc1ccc(C(=O)N[C@H](C(=O)N2CCC3(C2)OC(=O)Nc2ccc(Cl)cc23)[C@H](C)c2ccccc2)cc1` (stereo partly drawn) [Example 33, methyl (4-(((2S,3R)-1-(6-chloro-2-oxo-1,2-dihydrospiro[benzo[d][1,3]oxazine-4,3′-pyrrolidin]-1′-yl)-1-oxo-3-phenylbutan-2-yl)carbamoyl)phenyl)carbamate], the Ki was 4310 nM.

As to `COC(=O)Nc1ccc(C(=O)N[C@@H](CC2CCCCC2)C(=O)N2CCC3(C2)OC(=O)Nc2ccc(Cl)cc23)cc1` (stereo partly drawn) [Example 34, methyl (4-(((2S)-1-(6-chloro-2-oxo-1,2-dihydrospiro[benzo[d][1,3]oxazine-4,3′-pyrrolidin]-1′-yl)-3-cyclohexyl-1-oxopropan-2-yl)carbamoyl)phenyl)carbamate], the Ki was 90 nM.

For `COC(=O)Nc1ccc(C(=O)N[C@@H](CCC(F)(F)F)C(=O)N2CCC[C@@]3(C2)OC(=O)Nc2ccc(Cl)c(F)c23)cc1` [Example 36, methyl (4-(((S)-1-((R)-6-chloro-5-fluoro-2-oxo-1,2-dihydrospiro[benzo[d][1,3]oxazine-4,3′-piperidin]-1′-yl)-5,5,5-trifluoro-1-oxopentan-2-yl)carbamoyl)phenyl)carbamate], the Ki worked out at 84.4 nM.

In the case of `COC(=O)Nc1ccc(C(=O)NC[C@@H](Cc2ccccc2)C(=O)N2CCC3(C2)OC(=O)Nc2ccc(Cl)cc23)cc1` (stereo partly drawn) [Example 41, methyl (4-(((2R)-2-benzyl-3-(6-chloro-2-oxo-1,2-dihydrospiro[benzo[d][1,3]oxazine-4,3′-pyrrolidin]-1′-yl)-3-oxopropyl)carbamoyl)phenyl)carbamate], the Ki is over 5000 nM.

With `COC(=O)Nc1ccc(C(=O)NC(CC2CCS(=O)(=O)CC2)C(=O)N2CCC3(C2)OC(=O)Nc2ccc(Cl)cc23)cc1` (stereo not shown) [Example 42, methyl (4-((1-(6-chloro-2-oxo-1,2-dihydrospiro[benzo[d][1,3]oxazine-4,3′-pyrrolidin]-1′-yl)-3-(1,1-dioxidotetrahydro-2H-thiopyran-4-yl)-1-oxopropan-2-yl)carbamoyl)phenyl)carbamate], the Ki amounted to 83.6 nM.

Consider `COC(=O)Nc1ccc(C(=O)N[C@@H](Cc2ccc(NS(C)(=O)=O)cc2)C(=O)N2CCC[C@@]3(C2)OC(=O)Nc2ccc(Cl)cc23)cc1` [Example 46, methyl (4-(((S)-1-((R)-6-chloro-2-oxo-1,2-dihydrospiro[benzo[d][1,3]oxazine-4,3′-piperidin]-1′-yl)-3-(4-(methylsulfonamido)phenyl)-1-oxopropan-2-yl)carbamoyl)phenyl)carbamate], for which the Ki came out at 0.39 nM.

Regarding `COC(=O)Nc1ccc(C(=O)N[C@H](CC(=O)N2CCC3(C2)OC(=O)Nc2ccc(Cl)cc23)Cc2ccccc2)cc1` (stereo partly drawn) [Example 49, methyl (4-(((2S)-4-(6-chloro-2-oxo-1,2-dihydrospiro[benzo[d][1,3]oxazine-4,3′-pyrrolidin]-1′-yl)-4-oxo-1-phenylbutan-2-yl)carbamoyl)phenyl)carbamate], the Ki was determined as 362 nM.

As to `COC(=O)Nc1ccc(C(=O)N[C@@H](CCCCO)C(=O)N2CCC3(C2)OC(=O)Nc2ccc(Cl)cc23)cc1` (stereo partly drawn) [Example 51, methyl (4-(((2S)-1-(6-chloro-2-oxo-1,2-dihydrospiro[benzo[d][1,3]oxazine-4,3′-pyrrolidin]-1′-yl)-6-hydroxy-1-oxohexan-2-yl)carbamoyl)phenyl)carbamate], the Ki turned out to be 55.7 nM.

For `COC(=O)Nc1ccc(C(=O)N[C@@H](CCCCNC(=O)C(F)(F)F)C(=O)N2CCC[C@@]3(C2)OC(=O)Nc2ccc(Cl)cc23)cc1` [Example 54, methyl (4-(((S)-1-((R)-6-chloro-2-oxo-1,2-dihydrospiro[benzo[d][1,3]oxazine-4,3′-piperidin]-1′-yl)-1-oxo-6-(2,2,2-trifluoroacetamido)hexan-2-yl)carbamoyl)phenyl)carbamate], the Ki amounted to 52 nM.

On to `COC(=O)Nc1ccc(C(=O)N[C@@H](C)C(=O)N2CCC[C@@]3(C2)OC(=O)Nc2ccc(Cl)cc23)cc1` [Example 55, methyl (4-(((S)-1-((R)-6-chloro-2-oxo-1,2-dihydrospiro[benzo[d][1,3]oxazine-4,3′-piperidin]-1′-yl)-1-oxopropan-2-yl)carbamoyl)phenyl)carbamate], for which the Ki stood at 93.2 nM.

Turning to `COC(=O)Nc1ccc(C(=O)N[C@@H](CC[S+](C)[O-])C(=O)N2CCC[C@@]3(C2)OC(=O)Nc2ccc(Cl)cc23)cc1` (stereo partly drawn) [Example 56, methyl (4-(((2S)-1-((R)-6-chloro-2-oxo-1,2-dihydrospiro[benzo[d][1,3]oxazine-4,3′-piperidin]-1′-yl)-4-(methylsulfinyl)-1-oxobutan-2-yl)carbamoyl)phenyl)carbamate], the Ki was found to be 102 nM.

Consider `COC(=O)Nc1ccc(C(=O)N[C@@H](CCS(C)(=O)=O)C(=O)N2CCC[C@@]3(C2)OC(=O)Nc2ccc(Cl)cc23)cc1` [Example 59, methyl (4-(((S)-1-((R)-6-chloro-2-oxo-1,2-dihydrospiro[benzo[d][1,3]oxazine-4,3′-piperidin]-1′-yl)-4-(methylsulfonyl)-1-oxobutan-2-yl)carbamoyl)phenyl)carbamate], for which the Ki is 97.7 nM.

For the molecule `COC(=O)Nc1ccc(C(=O)N[C@@H](CC(F)(F)F)C(=O)N2CCC[C@@]3(C2)OC(=O)Nc2ccc(Cl)cc23)cc1` [Example 64, methyl (4-(((S)-1-((R)-6-chloro-2-oxo-1,2-dihydrospiro[benzo[d][1,3]oxazine-4,3′-piperidin]-1′-yl)-4,4,4-trifluoro-1-oxobutan-2-yl)carbamoyl)phenyl)carbamate], the Ki was 1930 nM.

Take `COC(=O)Nc1ccc(C(=O)N[C@H](C(=O)N2CCC[C@@]3(C2)OC(=O)Nc2ccc(Cl)c(F)c23)C2CC2)cc1` [Example 68, methyl (4-(((S)-2-((R)-6-chloro-5-fluoro-2-oxo-1,2-dihydrospiro[benzo[d][1,3]oxazine-4,3′-piperidin]-1′-yl)-1-cyclopropyl-2-oxoethyl)carbamoyl)phenyl)carbamate]: the Ki is 56.4 nM.

(Values after patent publication US10093683B2, “Factor XIa inhibitors” (Merck Sharp & Dohme Corp., priority 2014, dated 2018).)
